Data: patent publication US8309768B2, “FTY720-derived anticancer agents” (The Ohio State University Research Foundation, priority 2010, dated 2012)

Legend:
[1] = tested on: lymphocytes in peripheral blood; test: In vivo evaluation of T-lymphocyte homing; conditions: CD2F1 mice, i.p., 6 h
Description: In vivo evaluation of T-lymphocyte homing. […] Six hours later, animals were sacrificed, and peripheral blood mononuclear cells were prepared as described. Dragun et al., Kidney Int 65, 1076-1083 (2004). Cells were stained with FITC-labeled rat anti-mouse CD3 molecular complex and PE-labeled rat anti-mouse CD45RA (4° C., in darkness, 30 min), and analyzed by flow cytometry.

primary CLL cells = test: Cytotoxicity in primary CLL cells (Annexin V / propidium iodide flow cytometry); type: cell-based
Description: Antitumor and other effects of OSU-2S were also evaluated in Chronic Lymphoid Leukemia cells. OSU-2S cytotoxicity in primary CLL cells is measured at 24 hrs by staining for Annexin V and Propidium Iodide using Flow cytometer. The number of live cells (stained negative for both the stains) were normalized to untreated control. Fludarabine metabolite (2-Fara) was used as a control.
The effect of OSU-2S was evaluated in 3 different CLL cell lines (WROTH<THOU, and RAHUE) over a 24 hour period, as shown in FIG. 9. Time dependent OSU-2S cytotoxicity in primary CLL cells was measured by treating the cells with OSU-2S (8 μM) for indicated period of time and washed and cultured in the fresh media for 24 hr. The number of live cells stained negative for Annexin V and Propidium Iodide were measured at 24 hrs by using Flowcytometer and normalized to untreated control.
CD37 activation and OSU-2S produced enhanced cytotoxicity in CLL cells, as detected by flow cytometer at 24 hr. in CLL cells treated with CD37 antibody and cross linker or OSU-2S 8 μM or with both are stained for Annexin V and propidium iodide at 24 hr.

[2] = tested on: subcutaneous Hep3B tumors; test: Ectopic (subcutaneous) Hep3B xenograft tumor model; type: in vivo, athymic nude mice
Description: (§1) Xenograft tumor models. Ectopic tumors were established in athymic nude mice by subcutaneous injection of 1×10^6 Hep3B cells in a total volume of 0.1 ml of serum-free medium containing 50% Matrigel. Mice with established tumors were randomized to five groups (n=8) that received daily i.p. injections of OSU-2S or FTY720 at 5 or 10 mg/kg, or the vehicle. Tumor burdens were determined weekly using calipers (volume=width^2×length×0.52). Body weights were measured weekly. At the study endpoint, tumors were harvested, snap-frozen and stored at −80° C. for biomarker analysis. Blood and tissues were collected for evaluation of complete blood counts, serum chemistry and histopathology.

[3] = molecular target: T1, S1P1 receptor-overexpressing Huh7 cells (Homo sapiens, UniProt P21453); test: Cell viability in stable S1P1 receptor transfectants; type: cell-based; conditions: two stable S1P1 clones vs wild-type Huh7
T1 construct: expressed in transfected cells
T1 sequence (P21453 whole entry): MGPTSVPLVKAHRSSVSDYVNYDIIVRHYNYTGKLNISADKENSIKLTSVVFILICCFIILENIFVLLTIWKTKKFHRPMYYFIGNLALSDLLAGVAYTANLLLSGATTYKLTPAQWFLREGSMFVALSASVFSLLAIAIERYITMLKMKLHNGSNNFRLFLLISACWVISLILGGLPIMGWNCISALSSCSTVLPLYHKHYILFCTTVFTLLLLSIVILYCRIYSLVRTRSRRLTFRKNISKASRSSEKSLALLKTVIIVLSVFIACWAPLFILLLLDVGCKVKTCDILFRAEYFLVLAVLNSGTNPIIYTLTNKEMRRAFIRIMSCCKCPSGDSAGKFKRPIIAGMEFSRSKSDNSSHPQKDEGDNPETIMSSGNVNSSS
Description: Cell viability assay. Cell viability was assessed by 3-(4,5-dimethylthiazol-2-yl)-2,5-diphenyl-2H-tetrazolium bromide (MTT) assays in six replicates. Cells were seeded (4,000 cells/well; 96-well plate) for 24 h and treated with test agents in 5% FBS-supplemented DMEM. After treatment, cells were incubated in medium containing 0.5 mg/ml MTT (37° C., 2 h). Reduced MTT was dissolved in DMSO (200 μL/well) and absorbances measured at 570 nm.
Overexpression of S1P1 Receptors. Huh7 or Hep3B cells were transfected with plasmids encoding S1PR1, Flag-tagged GST-π or hemagglutinin (HA)-tagged, CA-Akt. The corresponding empty vectors were used as controls. Stable clones were selected over 3 weeks by geneticin, and the expression of cloned proteins was confirmed by Western blotting.

human recombinant SphK2 = molecular target: T2, human recombinant SphK2 (Homo sapiens, UniProt Q9NRA0); test: Phosphorylation of FTY720 and OSU-2S by SphK2 (radiometric, TLC); type: biochemical; conditions: 5 μM compound, [γ-32P]-ATP, 37° C., 60 min, TLC/autoradiography
T2 construct: purchased Cayman
T2 sequence (Q9NRA0 1-654): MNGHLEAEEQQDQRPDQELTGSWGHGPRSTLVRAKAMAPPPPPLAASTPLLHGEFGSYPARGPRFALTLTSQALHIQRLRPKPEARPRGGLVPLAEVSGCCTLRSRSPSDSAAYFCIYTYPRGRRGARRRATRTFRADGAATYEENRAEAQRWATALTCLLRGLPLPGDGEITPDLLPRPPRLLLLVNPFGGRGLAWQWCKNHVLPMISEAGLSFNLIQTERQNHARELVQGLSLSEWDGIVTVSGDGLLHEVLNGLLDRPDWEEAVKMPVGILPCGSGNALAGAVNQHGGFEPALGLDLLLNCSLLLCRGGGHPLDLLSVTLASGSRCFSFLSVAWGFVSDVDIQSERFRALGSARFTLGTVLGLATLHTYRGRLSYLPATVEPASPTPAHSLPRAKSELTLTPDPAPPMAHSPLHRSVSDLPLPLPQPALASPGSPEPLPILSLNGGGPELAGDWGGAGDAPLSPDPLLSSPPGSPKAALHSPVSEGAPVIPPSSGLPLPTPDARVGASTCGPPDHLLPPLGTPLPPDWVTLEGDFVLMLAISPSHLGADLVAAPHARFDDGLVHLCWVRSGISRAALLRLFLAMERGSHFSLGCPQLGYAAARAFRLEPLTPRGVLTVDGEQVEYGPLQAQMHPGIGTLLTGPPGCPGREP
Description: Phosphorylation of FTY720 and OSU-2S by SphK2. Analysis of SphK2-mediated phosphorylation was performed as reported with modifications. Prieschl […] J Exp Med, 190, 1-8 (1999). Briefly, 5 μM FTY720 or OSU-2S was incubated with 0.75 μg/ml human recombinant SphK2 (Cayman), 5 μCi [γ-^32P]-ATP, and 0.5 mM cold ATP at 37° C. for 60 min. The reaction products were separated by silica-gel thin layer chromatography (TLC) and visualized by autoradiography.

[4] = Toxicity evaluation in tumor-bearing mice (body weight, blood counts, histopathology); type: in vivo, athymic nude mice; conditions: for mice with abdominal adhesions with varying amounts of peritonitis: of six mice per group examined histologically
Description: as §1
Orthotopic tumors were established by direct intrahepatic injection of luciferase-expressing Hep3B (Hep3B-luc) cells as described. Omar et al., Mol Pharmacol, 76, 957-968 (2009). The establishment and growth of tumors were monitored by bioluminescent imaging using the IVIS™ imaging system (Xenogen, Alameda, Calif.). Two weeks after tumor cell injection, animals with established tumors were randomized to three groups (n=3) that received daily i.p. injections of FTY720 or OSU-2S at 5 mg/kg, or vehicle for 42 days and were imaged weekly. All animal use described in this manuscript was done in accordance with protocols approved by The Ohio State University Institutional Animal Care and Use Committee.

## CCC[C@@](N)(CO)CCc1ccc(OCCCCCC(C)C)cc1 [OSU-2S, (S)-2-amino-2-(4-[(6-methylheptyl)-oxy]phenethyl)pentan-1-ol]
[1]; 5 mg/kg
  effect on number of T lymphocytes in peripheral blood: modest decrease
[1]; 1 and 2 mg/kg
  effect on number of T lymphocytes in peripheral blood: no appreciable effect
[1]
  changes in circulating B lymphocytes: no comparable changes
Primary CLL cells; 8 μM for indicated time, washed, cultured 24 hr, 3 CLL cell lines
  time dependent cytotoxicity: decreased number live cells over time
Primary CLL cells; CLL cells, 24 hr, OSU-2S 8 μM and/or CD37 antibody and cross linker
  live cells (negative for Annexin V and propidium iodide): about 30%
Primary CLL cells; primary CLL cells, 24 hrs, OSU-2S at 8 μM
  growth (live cells normalized to untreated control): about 30%
[2]; 5 mg/kg, i.p. once daily, P<0.001
  ectopic Hep3B tumor growth vs vehicle control: completely suppressed
[2]; 10 mg/kg i.p. daily, end of 42-day treatment
  reduction of tumor volume: more than 50%
[2]; Hep3B tumor tissue homogenates, Western blot
  intratumoral biomarkers of drug activity: PKCδ and caspase-3 were activated
[3]
  effect of S1P1 receptor overexpression on antiproliferative activity: no protective effect
Human recombinant SphK2
  phosphorylation by recombinant SphK2: not phosphorylated
[4]; 5 mg/kg
  mice with abdominal adhesions with varying amounts of peritonitis: all
[4]; 10 mg/kg
  mice with abdominal adhesions with varying amounts of peritonitis: all
[4]; ectopic tumor-bearing mice at study endpoint
  lymphocyte levels: normal
[4]; ectopic tumor-bearing mice, daily i.p. 5 or 10 mg/kg
  overt toxicity and body weight: no overt signs of toxicity and no loss of body weight
[4]; mice after 42 days of treatment
  total lymphocyte counts: no decrease
[4]; orthotopic tumor-bearing mice, daily i.p., 42 days
  tolerability (stable body weights): well tolerated
